From patent publication US8580288B2, “Agricultural or horticultural fungicide composition and its use for controlling plant pathogens” (Ishihara Sangyo Kaisha, Ltd, priority 2009, dated 2013)
Where two headings read alike, the source gives them in different places.

Assays:
Pythium aphanidermatum = test: Inhibition test of mycelial growth against Pythium aphanidermatum; type: cell-based; conditions: read-out: Inhibition Rate of Mycelial Growth against Pythium aphanidermatum
Description: [Worded in the source for another organism; this organism is reported under the same test.] (§1) Pythium aristosporum was precultured. And the obtained hyphae (4 mm in diameter) was transplanted on potato sucrose agar medium (PSA) including an agent at a predetermined concentration, and then cultured for two days at room temperature of 20° C., followed by measuring a diameter of the mycelial colony to obtain an inhibition rate of mycelial growth. The inhibition rate of mycelial growth was obtained by measuring a diameter of mycelial colony in the same manner as Test Example 1. In addition, a theoretical value of the inhibition rate was calculated using Colby's formula and listed in parentheses of Table 2.

Pythium aristosporum = test: Inhibition test of mycelial growth against Pythium aristosporum; type: cell-based; conditions: 48 h, PSA, 2 days, 20° C., read-out: Inhibition Rate of Mycelial Growth against Pythium aristosporum
Description: as §1, with “growth.” for “growth. The inhibition rate of mycelial growth was obtained by measuring a diameter of mycelial colony in the same manner as Test Example 1.”, “1.” for “2.”

[1] = Cyazofamid 0.1 ppm alone (Folpet 0 ppm)
[2] = Cyazofamid 1 ppm alone (Folpet 0 ppm)
[3] = Cyazofamid 10 ppm alone (Folpet 0 ppm)
[4] = Cyazofamid 100 ppm alone (Folpet 0 ppm)
[5] = Folpet 0.1 ppm alone (Cyazofamid 0 ppm)
[6] = Folpet 1 ppm alone (Cyazofamid 0 ppm)
[7] = Folpet 10 ppm alone (Cyazofamid 0 ppm)
[8] = Folpet 100 ppm alone (Cyazofamid 0 ppm)

SMILES	inhibition at 0.1 ppm (Pythium aphanidermatum; [1])	inhibition at 1 ppm (Pythium aphanidermatum; [2])	inhibition at 10 ppm (Pythium aphanidermatum; [3])	inhibition at 100 ppm (Pythium aphanidermatum; [4])	inhibition at 0.1 ppm (Pythium aristosporum; [1])	inhibition at 1 ppm (Pythium aristosporum; [2])	inhibition at 10 ppm (Pythium aristosporum; [3])	inhibition at 100 ppm (Pythium aristosporum; [4])	inhibition at 0.1 ppm (Pythium aphanidermatum; [5])	inhibition at 1 ppm (Pythium aphanidermatum; [6])	inhibition at 10 ppm (Pythium aphanidermatum; [7])	inhibition at 100 ppm (Pythium aphanidermatum; [8])	inhibition at 0.1 ppm (Pythium aristosporum; [5])	inhibition at 1 ppm (Pythium aristosporum; [6])	inhibition at 10 ppm (Pythium aristosporum; [7])	inhibition at 100 ppm (Pythium aristosporum; [8])
Cc1ccc(-c2c(Cl)nc(C#N)n2S(=O)(=O)N(C)C)cc1 [Cyazofamid, 4-chloro-2-cyano-1-dimethylsulfamoyl-5-(4-methylphenyl)imidazole]	54%	52%	60%	80%	17%	38%	38%	41%	–	–	–	–	–	–	–	–
O=C1c2ccccc2C(=O)N1SC(Cl)(Cl)Cl [Folpet, N-(trichloromethanesulphenyl)phthalimide]	–	–	–	–	–	–	–	–	2%	0%	62%	80%	3%	3%	45%	90%
